Measured values from patent publication US8470810B2, “Heterocyclic compounds suitable for treating disorders that respond to modulation of the dopamine D3 receptor” (Abbott GmbH & Co. KG, priority 2004, dated 2013).
Structures can show the parent of a compound that is named as a salt.

How the values were obtained:
[1] = biological target: T1, human dopamine D3 receptors (Homo sapiens, UniProt P35462); experiment: Dopamine D3 receptor binding, displacement of [125I]-iodosulpride; details: for Ki: membranes of HEK-293 cells stably expressing human D3, 0.1 nM [125I]-iodosulpride, 25° C., 60 minutes; for Ki(D2)*/Ki(D3)*: selectivity ratio of the receptor binding constants D2 over D3
T1 construct: expressed in transfected cells
T1 sequence (P35462 whole entry): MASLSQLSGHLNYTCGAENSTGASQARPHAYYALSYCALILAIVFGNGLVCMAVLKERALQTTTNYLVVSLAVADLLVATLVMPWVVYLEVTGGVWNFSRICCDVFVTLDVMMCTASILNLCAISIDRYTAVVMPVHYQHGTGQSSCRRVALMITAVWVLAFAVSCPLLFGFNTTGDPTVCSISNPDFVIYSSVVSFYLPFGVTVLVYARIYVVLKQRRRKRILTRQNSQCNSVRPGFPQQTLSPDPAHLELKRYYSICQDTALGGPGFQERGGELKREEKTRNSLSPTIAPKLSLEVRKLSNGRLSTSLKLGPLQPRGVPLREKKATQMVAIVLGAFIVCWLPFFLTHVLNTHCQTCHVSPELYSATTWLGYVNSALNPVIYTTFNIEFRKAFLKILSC
Protocol: (§1) The substance to be tested was either dissolved in methanol/Chremophor® (BASFAG) or in dimethyl sulfoxide and then diluted with water to the desired concentration.
(§2) Each assay mixture was run in triplicate.
The incubation buffer contained 50 mM tris, 120 mM NaCl, 5 mM KCl, 2 mM CaCl2, 2 mM MgCl2 and 0.1% bovine serum albumin, 10 μM quinolone and 0.1% ascorbic acid (prepared fresh daily). The buffer was adjusted to pH 7.4 with HCl.
(§3) After having been incubated at 25° C. for 60 minutes, the assay mixtures were filtered through a Whatman GF/B glass fiber filter under vacuum using a cell collecting device. The filters were transferred to scintillation viols using a filter transfer system. After 4 ml of Ultima Gold® (Packard) have been added, the samples were shaken for one hour and the radioactivity was then counted in a Beta-Counter (Packard, Tricarb 2000 or 2200CA). The cpm values were converted into dpm using a standard quench series and the program belonging to the instrument.
(§4) The inhibition curves were analyzed by means of iterative nonlinear regression analysis using the Statistical Analysis System (SAS) which is similar to the “LIGAND” program described by Munson and Rodbard.
(§5) The results of the receptro binding studies are expressed as receptor binding constants Ki(D2) and Ki(D3), respectively, as herein before described, and given in table 6.

[2] = biological target: T2, human dopamine D2L receptors (long isoform) (Homo sapiens, UniProt P14416); experiment: Dopamine D2L receptor binding, displacement of [125I] iodospiperone; details: membranes of HEK-293 cells stably expressing human D2L; 0.01 nM [125I] iodospiperone; 25° C., 60 minutes; read-out: Ki(D2)*
T2 construct: expressed in transfected cells
T2 sequence (P14416 whole entry, canonical isoform): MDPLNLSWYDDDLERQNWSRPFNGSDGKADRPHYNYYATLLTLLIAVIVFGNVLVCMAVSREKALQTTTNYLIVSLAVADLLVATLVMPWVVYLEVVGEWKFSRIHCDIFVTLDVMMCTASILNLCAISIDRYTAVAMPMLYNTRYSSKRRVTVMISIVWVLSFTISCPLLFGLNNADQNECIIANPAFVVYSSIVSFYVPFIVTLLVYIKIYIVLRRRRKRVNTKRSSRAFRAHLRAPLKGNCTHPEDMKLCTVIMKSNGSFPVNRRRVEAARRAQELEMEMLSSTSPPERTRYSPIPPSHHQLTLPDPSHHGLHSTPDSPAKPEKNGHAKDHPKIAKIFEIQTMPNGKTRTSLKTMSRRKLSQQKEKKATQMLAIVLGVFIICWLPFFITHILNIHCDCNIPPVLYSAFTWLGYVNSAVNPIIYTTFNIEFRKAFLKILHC
Protocol: as §1, §2
The incubation buffer contained 50 mM tris, 120 mM NaCl, 5 mM KCl, 2 mM CaCl2, 2 mM MgCl2 and 0.1% bovine serum albumin. The buffer was adjusted to pH 7.4 with HCl.
as §3, §4, §5

Structure (SMILES) | Ki [1] [nM] | Ki(D2)*/Ki(D3)* [1] | Ki [2] [nM]
CCCN1CC[C@@H](c2ccc(NS(=O)(=O)c3ccc(N4CCCC4)cc3)cc2)C1 [Example 67, N-[4-((S)-1-Propyl-pyrrolidin-3-yl)-phenyl]-4-pyrrolidin-1-yl-benzenesulfonamide] | 0.35 | 11 | 3.88
CCCN1CC[C@@H](c2ccc(NS(=O)(=O)c3ccc(F)cc3)cc2)C1.Cl [Example 125, 4-Fluoro-N-[4-((S)-1-propyl-pyrrolidin-3-yl)-phenyl]-benzenesulfonamide hydrochloride] | 19.5 | 67 | 1300
CCCN1CC(c2ccc(NS(=O)(=O)c3ccc(C(C)C)cc3)cc2)C1 [Example 48, 4-Isopropyl-N-[4-(1-propyl-azetidin-3-yl)-phenyl]-benzene sulfonamide] | 2.1 | 65 | 137
C[C@@H](CF)c1ccc(S(=O)(=O)Nc2ccc([C@@H]3CCNC3)cc2)cc1 [Example 110, 4-((R)-2-Fluoro-1-methyl-ethyl)-N—((S)-4-pyrrolidin-3-yl-phenyl)-benzenesulfonamide] | 6.6 | 135 | 895
CC(C)c1ccc(S(=O)(=O)Nc2ccc(C3CCNC3)c(F)c2)cc1 (stereo not drawn) [Example 129, N-(3-Fluoro-4-pyrrolidin-3-yl-phenyl)-4-isopropyl-benzenesulfonamide] | 3.6 | 30 | 106
CCCN1CC[C@@H](c2ccc(NS(=O)(=O)c3ccc4c(c3)CCO4)cc2)C1 [Example 14, 2,3-Dihydro-benzofuran-5-sulfonic acid [4-((S)-1-propyl-pyrrolidin-3-yl)-phenyl]-amide] | 3.4 | 37 | 123
CCCN1CC[C@@H](c2ccc(NS(=O)(=O)c3ccc(C(C)CC)cc3)cc2)C1.Cl (stereo partly drawn) [Example 33, 4-sec-Butyl-N-[4-((S)-1-propyl-pyrrolidin-3-yl)-phenyl]-benzenesulfonamide hydrochloride] | 0.17 | 33 | 5.47
CCCN1CC(c2ccc(NS(=O)(=O)c3ccc(C(C)C)cc3)cn2)C1 [Example 46, 4-Isopropyl-N-[6-(1-propyl-azetidin-3-yl)-pyridin-3-yl]-benzenesulfonamide] | 49 | 37 | 1830
O=S(=O)(Nc1ccc([C@@H]2CCNC2)cc1)c1ccc(CCCF)cc1 [Example 108, 4-(3-Fluoro-propyl)-N—((S)-4-pyrrolidin-3-yl-phenyl)-benzenesulfonamide] | 11.2 | 18 | 204
CCCN1CC[C@@H](c2ccc(NS(=O)(=O)c3ccc(C(C)=O)cc3)cc2)C1 [Example 26, 4-Acetyl-N-[4-((S)-1-propyl-pyrrolidin-3-yl)-phenyl]-benzenesulfonamide] | 28.1 | 46 | 1280
CCCN1CC[C@@H](c2ccc(NS(=O)(=O)c3ccc(CCCF)cc3)cc2)C1 [Example 92, 4-(3-Fluoro-propyl)-N-[4-((S)-1-propyl-pyrrolidin-3-yl)-phenyl]-benzenesulfonamide] | 0.61 | 28 | 17.3
CCCN1CC[C@H](c2ccc(NS(=O)(=O)c3ccc(C(C)C)cc3)cc2)C1.Cl [Example 5, 4-(Isopropyl)-N-[4-((R)-1-propyl-pyrrolidin-3-yl)-phenyl]benzenesulfonamide hydrochloride] | 2.9 | 93 | 267
CCCN1CC[C@@H](c2ccc(NS(=O)(=O)c3ccc(OCc4ccccc4)cc3)cc2)C1 [Example 121, 4-Benzyloxy-N-[4-((S)-1-propyl-pyrrolidin-3-yl)-phenyl]-benzenesulfonamide] | 3.7 | 44 | 163
CCCN1CC[C@@H](c2ccc(NS(=O)(=O)c3ccc(C4CC4(F)F)cc3)cc2)C1 (stereo partly drawn) [Example 41, 4-(2,2-Difluorocyclopropyl)-N-[4-((S)-1-propyl-pyrrolidin-3-yl)-phenyl]-benzenesulfonamide] | 0.44 | 30 | 13.5
CCCN1CC(c2ccc(NS(=O)(=O)c3ccc(CC(F)(F)F)cc3)cc2)C1 [Example 62, N-[4-(1-Propyl-azetidin-3-yl)-phenyl]-4-(2,2,2-trifluoro-ethyl)-benzenesulfonamide] | 25.2 | 141 | 3540
CCCN1CC[C@@H](c2ccc(NS(=O)(=O)c3ccc(-c4cnn(C)c4)cc3)cc2)C1 [Example 118, 4-(1-Methyl-1H-pyrazol-4-yl)-N-[4-((S)-1-propyl-pyrrolidin-3-yl)-phenyl]-benzenesulfonamide] | 36.6 | 32 | 1170
CCCN1CC[C@@H](c2ccccc2NS(=O)(=O)c2ccc(-c3cnco3)cc2)C1 [Example 71, 4-Oxazol-5-yl-N-[2-((S)-1-propyl-pyrrolidin-3-yl)-phenyl]-benzenesulfonamide] | 4.79 | 11 | 52.3
CCCN1CC[C@@H](c2ccc(NS(=O)(=O)c3ccc(CCC(F)(F)F)cc3)cc2)C1 [Example 88, N-[4-((S)-1-Propyl-pyrrolidin-3-yl)-phenyl]-4-(3,3,3-trifluoro-Propyl)-benzenesulfonamide] | 0.92 | 45 | 41

Continued by falling Ki [1], values first:

Ki [1] [nM] | Ki(D2)*/Ki(D3)* [1] | Ki [2] [nM] | Structure (SMILES)
31.3 | 37 | 1160 | CCCN1CC[C@@H](c2ccc(NS(=O)(=O)c3ccc(-c4ccon4)s3)cc2)C1 [Example 81, 5-Isoxazol-3-yl-thiophene-2-sulfonic acid [4-((S)-1-propyl-pyrrolidin-3-yl)-phenyl]-amide]
12.6 | 31 | 393 | CCCN1CC[C@@H](c2ccccc2NS(=O)(=O)c2ccc(Br)c(F)c2)C1 [Example 16, 4-Bromo-3-fluoro-N-[2-((S)-1-propyl-pyrrolidin-3-yl)-phenyl]-benzenesulfonamide]
8.3 | 43 | 352 | CCN1CC[C@@H](c2ccc(NS(=O)(=O)c3ccc(OC(F)(F)F)cc3)cc2)C1 [Example 104, N-[4-((S)-1-Ethyl-pyrrolidin-3-yl)-phenyl]-4-trifluoromethoxy-benzenesulfonamide]
7.63 | 1019 | 7780 | CCCN1CC(c2ccc(NS(=O)(=O)c3ccc([C@H](C)CF)cc3)cc2)C1 [Example 60, 4-((S)-2-Fluoro-1-methyl-ethyl)-N-[4-(1-propyl-azetidin-3-yl)-phenyl]-benzenesulfonamide]
4.1 | 57 | 235 | CCCN1CC[C@@H](c2ccc(NS(=O)(=O)c3ccc(C(F)(F)F)cc3)cc2)C1.Cl [Example 8, 4-Trifluoromethyl-N-[4-((S)-1-propyl-pyrrolidin-3-yl)-phenyl]-benzenesulfonamide hydrochloride]
3.1 | 54 | 168 | CCCN1CC[C@@H](c2ccc(NS(=O)(=O)c3ccc(Cl)cc3)cc2)C1 [Example 13, 4-Chloro-N-[4-((S)-1-propyl-pyrrolidin-3-yl)-phenyl]-benzenesulfonamide]
1.2 | 38 | 45 | CCCN1CC[C@@H](c2ccc(NS(=O)(=O)c3ccc(CC(F)(F)F)cc3)cc2)C1 [Example 103, N-[4-((S)-1-Propyl-pyrrolidin-3-yl)-phenyl]-4-(2,2,2-trifluoro-ethyl)benzenesulfonamide]
0.83 | 70 | 57.8 | CC(C)c1ccc(S(=O)(=O)Nc2ccc([C@@H]3CCN(CCF)C3)cc2)cc1 [Example 96, N-{4-[(S)-1-(2-Fluoro-ethyl)-pyrrolidin-3-yl]-phenyl}-4-isopropyl-benzenesulfonamide]
0.48 | 26 | 12.6 | C=C(C)c1ccc(S(=O)(=O)Nc2ccc([C@@H]3CCN(CCC)C3)cc2)c(F)c1 [Example 19, 2-Fluoro-4-isopropenyl-N-[4-((S)-1-propyl-pyrrolidin-3-yl)-phenyl]-benzenesulfonamide]
0.24 | 9 | 2.3 | CCCN1CC[C@@H](c2ccc(NS(=O)(=O)c3ccc(C(C)(C)CC)cc3)cc2)C1.Cl [Example 2, 4-(1,1-Dimethyl-propyl)-N-[4-((S)-1-propyl-pyrrolidin-3-yl)-phenyl]-benzenesulfonamide hydrochloride]
0.15 | 22 | 3.25 | CCCN1CC[C@@H](c2ccc(NS(=O)(=O)c3ccc(C4CCCC4)cc3)cc2)C1 [Example 37, 4-Cyclopentyl-N-[4-(S)-1-propyl-pyrrolidin-3-yl)-phenyl]-benzenesulfonamide hydrochloride]
